The values below come from BindingDB's records for doi:10.7270/Q2X065P9 (Methylgene, 2012).

As usually defined, the IC50 is the midpoint of a concentration-inhibition curve. A low value points to greater potency.

Values joined by “and” are separate entries in the source; they are usually repeats but may differ in a detail not shown here. Identical values can stand only once.

High affinity nerve growth factor receptor, sequence (P04629 whole entry): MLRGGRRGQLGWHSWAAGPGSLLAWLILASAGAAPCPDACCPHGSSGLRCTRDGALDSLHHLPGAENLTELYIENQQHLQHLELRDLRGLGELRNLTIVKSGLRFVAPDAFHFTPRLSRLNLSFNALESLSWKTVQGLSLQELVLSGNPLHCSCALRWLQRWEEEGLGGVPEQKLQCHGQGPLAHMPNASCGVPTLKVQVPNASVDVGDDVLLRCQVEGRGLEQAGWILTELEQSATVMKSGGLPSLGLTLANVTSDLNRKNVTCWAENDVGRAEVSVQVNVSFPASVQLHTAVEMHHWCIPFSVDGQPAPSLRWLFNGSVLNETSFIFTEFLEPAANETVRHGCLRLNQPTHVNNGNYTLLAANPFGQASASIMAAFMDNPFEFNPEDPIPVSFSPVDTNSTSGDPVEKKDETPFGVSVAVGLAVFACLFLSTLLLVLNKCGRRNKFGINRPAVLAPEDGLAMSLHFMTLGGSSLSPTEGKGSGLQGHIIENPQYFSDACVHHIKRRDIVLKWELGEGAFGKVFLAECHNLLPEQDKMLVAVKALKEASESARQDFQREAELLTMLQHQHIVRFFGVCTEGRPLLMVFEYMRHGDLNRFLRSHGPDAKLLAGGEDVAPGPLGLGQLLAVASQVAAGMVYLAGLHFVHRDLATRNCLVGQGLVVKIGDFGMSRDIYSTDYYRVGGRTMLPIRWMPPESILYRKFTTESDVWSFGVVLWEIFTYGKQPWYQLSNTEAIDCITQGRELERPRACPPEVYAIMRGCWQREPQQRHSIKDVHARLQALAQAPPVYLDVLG

The first experiment has as its target High affinity nerve growth factor receptor (Homo sapiens, UniProt P04629). Description: Inhibition Assay. From the text:
(§1) Inhibition assay using kinase inhibitors.
Take `CNC(=O)Nc1cc(Oc2ccc(NC(=O)N3CCN(c4ccc(F)cc4)C3=O)cc2)ccn1` [2-oxoimidazolidine-1-carboxamide, 16]: the IC50 is 2 nM.

The compound `CC(=O)Nc1cc(Oc2ccc(NC(=O)N3CCN(c4ccc(F)cc4)C3=O)cc2)ccn1` [2-oxoimidazolidine-1-carboxamide, 14] yielded a half-maximal inhibitory concentration (IC50) of 3 nM. Still for that read-out and setting: under `O=C(NCCN1CCCC1)Nc1cc(Oc2ccc(NC(=O)N3CCN(c4ccc(F)cc4)C3=O)cc2)ccn1` [2-oxoimidazolidine-1-carboxamide, 17] stands 4 nM; under `CC(=O)Nc1cc(Oc2ccc(NC(=O)N3CCN(c4ccccc4)C3=O)cc2)ccn1` [2-oxoimidazolidine-1-carboxamide, 5], 4 nM; under `Nc1cc(Oc2ccc(NC(=O)N3CCN(c4ccccc4)C3=O)cc2)ccn1` [2-oxoimidazolidine-1-carboxamide, 13], 20 nM. Still for that read-out and setting: under `CNC(=O)Nc1cc(Oc2ccc(NC(=O)N3CCN(c4ccccc4)C3=O)cc2)ccn1` [2-oxoimidazolidine-1-carboxamide, 15] stands 5 nM.

The target in another experiment is Hepatocyte growth factor receptor (Homo sapiens, UniProt P08581). Description: Inhibition Assay.
Hepatocyte growth factor receptor, sequence (P08581 whole entry): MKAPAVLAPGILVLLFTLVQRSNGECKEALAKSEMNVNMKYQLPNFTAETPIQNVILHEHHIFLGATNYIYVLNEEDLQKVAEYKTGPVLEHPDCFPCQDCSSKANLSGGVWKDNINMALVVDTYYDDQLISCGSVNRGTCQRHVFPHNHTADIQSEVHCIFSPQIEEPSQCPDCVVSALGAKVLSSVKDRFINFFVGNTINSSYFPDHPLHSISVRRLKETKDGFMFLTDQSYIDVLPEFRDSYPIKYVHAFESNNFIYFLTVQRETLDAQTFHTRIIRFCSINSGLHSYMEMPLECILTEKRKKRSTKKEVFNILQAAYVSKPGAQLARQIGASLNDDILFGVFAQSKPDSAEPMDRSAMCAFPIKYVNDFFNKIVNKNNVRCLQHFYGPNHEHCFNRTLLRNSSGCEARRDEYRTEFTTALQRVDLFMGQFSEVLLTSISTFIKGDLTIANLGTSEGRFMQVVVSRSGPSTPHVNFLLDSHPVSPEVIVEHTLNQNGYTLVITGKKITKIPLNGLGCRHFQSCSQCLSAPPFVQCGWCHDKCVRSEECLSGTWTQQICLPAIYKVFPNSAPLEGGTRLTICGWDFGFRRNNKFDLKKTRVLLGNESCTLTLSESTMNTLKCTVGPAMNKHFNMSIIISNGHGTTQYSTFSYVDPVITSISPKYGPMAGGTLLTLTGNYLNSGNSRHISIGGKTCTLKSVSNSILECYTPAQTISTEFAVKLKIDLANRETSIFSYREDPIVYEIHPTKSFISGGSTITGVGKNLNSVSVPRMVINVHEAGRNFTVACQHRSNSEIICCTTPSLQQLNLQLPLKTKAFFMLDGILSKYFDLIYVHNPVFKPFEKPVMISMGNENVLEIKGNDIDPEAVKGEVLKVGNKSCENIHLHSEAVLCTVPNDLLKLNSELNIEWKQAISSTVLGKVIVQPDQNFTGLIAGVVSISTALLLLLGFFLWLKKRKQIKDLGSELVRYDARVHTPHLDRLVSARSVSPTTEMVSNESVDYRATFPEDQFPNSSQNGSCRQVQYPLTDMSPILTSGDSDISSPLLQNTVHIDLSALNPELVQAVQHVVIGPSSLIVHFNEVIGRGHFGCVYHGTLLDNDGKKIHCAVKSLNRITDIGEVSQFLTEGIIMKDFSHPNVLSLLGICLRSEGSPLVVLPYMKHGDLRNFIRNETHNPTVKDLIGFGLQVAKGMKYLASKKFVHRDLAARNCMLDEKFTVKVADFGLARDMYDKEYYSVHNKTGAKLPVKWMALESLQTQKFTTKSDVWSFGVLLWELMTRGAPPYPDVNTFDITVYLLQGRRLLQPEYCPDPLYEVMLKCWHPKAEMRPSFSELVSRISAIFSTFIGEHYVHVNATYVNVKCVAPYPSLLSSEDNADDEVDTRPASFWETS
Source text: as §1
Take `O=C(Nc1cc(Oc2ccc(NC(=O)N3CCN(c4ccccc4)C3=O)cc2F)ccn1)N1CCCC1` [Oxo-3-phenylimidazolidine-1-carboxamide, 4]: 230 nM corresponded to half-maximal inhibition (IC50). Same read-out and setting: then `CCn1cnc(-c2cc3nccc(Oc4ccc(NC(=O)N5CCN(c6ccccc6)C5=O)cc4F)c3s2)c1`, with 10 nM; and `O=C(Nc1cc(Oc2ccc(NC(=O)N3CCN(c4ccccc4)C3=O)cc2F)ncn1)N1CCCC1` [Oxo-3-phenylimidazolidine-1-carboxamide, 3], with 150 nM; and `COc1cc2nccc(Oc3ccc(NC(=O)N4CCN(c5ccccc5)C4=O)cc3F)c2cc1OC`, with 10 nM.

As for `CC(=O)Nc1cc(Oc2ccc(NC(=O)N3CCN(c4ccccc4)C3=O)cc2F)ccn1` [Oxo-3-phenylimidazolidine-1-carboxamide, 5], the IC50 is 310 nM and 2500 nM.
